Reference: ChEMBL document CHEMBL5728983, “Macrocyclic derivative of pyrazol[3,4-d]pyrimidin-3-one, pharmaceutical composition and use thereof” (2022)

Target: Wee1-like protein kinase (Homo sapiens, UniProt P30291)
Test: Enzymatic Activity of Wee1: In the present disclosure, Wee1 enzyme catalysis assay was carried out using the ATP-Glo Max kinase luminescence detection kit (Promega). Kinase activity was assessed by quantitative detection of the amount of ATP retained in the solution following the kinase reaction. The luminescent signal in the assay is proportional to the amount of ATP and inversely proportional to the kinase activity. The concentration of the compound in the assay ranged from 0.5 nM to 30 μM. The compound was dissolved in 10% DMSO, and 5 μL of the solution was added to 50 μL of the reaction, and the concentration of DMSO in the final reaction was 1%. The reaction was carried out at 30° C. for 50 minutes. 40 mM trishydroxymetyl aminomethane, pH 7.4, 10 mM MgCl2, 0.1 mg/ml BSA, 2 mM DTT, 0.1 mg/ml Poly (Lys, Tyr) substrate, 10 μM ATP and Wee1 were contained in the reaction mixture. After the enzymatic reaction, 50 μL of ATP-Glo Max kinase luminescence detection assay solution (Promega) was added and incubated for 15 minutes at room temperature. The luminescent signal was measured using a microplate reader. In some assays, a known Wee1 inhibitor was added as a positive control. Luminance data was analyzed using Graphpad software.

Chain of Wee1-like protein kinase (P30291 whole entry): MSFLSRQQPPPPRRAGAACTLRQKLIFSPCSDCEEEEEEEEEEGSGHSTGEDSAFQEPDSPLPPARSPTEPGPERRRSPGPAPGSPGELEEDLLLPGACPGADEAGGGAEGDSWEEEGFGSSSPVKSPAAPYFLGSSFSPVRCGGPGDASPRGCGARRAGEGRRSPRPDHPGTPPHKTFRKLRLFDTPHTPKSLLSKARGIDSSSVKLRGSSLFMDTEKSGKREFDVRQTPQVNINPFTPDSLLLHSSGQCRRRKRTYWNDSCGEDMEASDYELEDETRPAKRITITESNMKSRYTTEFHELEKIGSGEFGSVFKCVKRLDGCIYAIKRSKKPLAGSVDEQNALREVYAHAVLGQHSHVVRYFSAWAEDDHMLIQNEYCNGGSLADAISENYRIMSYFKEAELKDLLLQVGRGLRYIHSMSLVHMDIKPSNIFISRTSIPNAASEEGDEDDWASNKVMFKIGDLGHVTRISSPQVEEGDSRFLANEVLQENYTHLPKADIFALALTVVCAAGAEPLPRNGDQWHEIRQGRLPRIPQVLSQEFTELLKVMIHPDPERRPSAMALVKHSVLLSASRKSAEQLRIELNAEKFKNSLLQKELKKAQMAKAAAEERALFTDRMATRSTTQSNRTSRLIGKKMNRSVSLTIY

| IC50 [nM] | Compound |
| --- | --- |
| 10.4 | CC(C)N1Cc2cc(Nc3ncc4c(=O)n5n(c4n3)-c3ccc4c(n3)N(CCC/C=C\C5)C(=O)CO4)ccc2C2(CC2)C1 |
| 10.2 | CC(C)N1Cc2ccc(Nc3ncc4c(=O)n5n(c4n3)-c3ccc4c(n3)N(CCC/C=C\C5)C(=O)CO4)cc2C2(CC2)C1 |
